The test system of one assay is AGE1.CR.PIX. Nature of the assay: IBDV replication with or without 5 mM 2-aminopurin, TCID50 titration, AGE1.CR.PIX. The note with it: AGE1.CR.PIX (normal RAS), IBDV MOI 0.05, 5 mM 2-AP versus none, 96 h. The assay is classed as cell-based, duck. The method, then: (§1) FIG. 2: Enhancement of IBDV replication following treatment with 2-aminopurin in cell lines with normal RAS function (HEK293, AGE1.CR.PIX) but not in a RAS defective cell line (A549). Cells were infected with IBDV at MOI 0.05 either in the presence of 5 mM 2-aminopurin (2-AP) or without, cells together with supernatant were lysed by 3× freeze/thaw steps, cell debris was removed by centrifugation and the virus titer was quantified by TCID50.
(§2) Because susceptibility varies among cell lines, the positive impact of a RAS defect on IBDV replication has to be shown comparing cells of the same type with a specific propensity to replicate IBDV with normal and defect RAS function. Such RAS defect can be simulated in a cell line with normal RAS when cells are treated with 2-aminopurin. The drug prevents phosphorylation of protein kinase PKR that is prevented in cells with a RAS defect. The effect of 2-aminopurin on IBDV replication is studied in cell lines with (A549) and without a RAS mutation (AGE1.CR.PIX, HEK293).
(§3) HEK 293, A549, and AGE1.CR.pIX cells were infected with IBDV at MOI 0.05 either in the presence of 5 mM 2-aminopurin (2-AP) or without. […] Subsequently, the virus titer was quantified by TCID50 titration in different dilutions using adherent AGE1.CR.PIX cells. Based on the cytopathic effect (CPE) the TCID50 titer was evaluated 72 hours post infection (FIG. 2).

The test system of a further assay is HEK293. Nature of the assay: IBDV replication with or without 5 mM 2-aminopurin, TCID50 titration, HEK293. The assay is classed as cell-based. The note with it: HEK293 (normal RAS), IBDV MOI 0.05, 5 mM 2-AP versus none, 96 h. The method, then:
as §1, §2, §3

The next assay concerns A549. Briefly: IBDV replication with or without 5 mM 2-aminopurin, TCID50 titration, A549 (RAS mutant). The note with it: IBDV MOI 0.05, 5 mM 2-AP versus none, 96 h. It counts as cell-based, human. The method, then:
as §1, §2, §3

Assay [1] relates to stage IV hilar cholangiocarcinoma. Briefly: Compassionate use case report: cholangiocarcinoma. The assay is classed as in vivo, human. The note with it: same patient before IBDV; agents added to ongoing low-dose chemotherapy; CA19-9 at diagnosis 2,729. An excerpt:
A person approached the clinic for treatment of resistant stage IV hilar cholangiocarcinoma, CK7 positive, CK20 negative with confirmed peritoneal metastatic disease. During 2016 patient developed unexplained weight loss of approximately 10 kg, night pruritus. […] In January 2017 jaundice developed. Blood test on 19 Mar. […] Considering tumor location and potential involvement of both right and left lobes, no surgical procedure was considered, except liver transplantation. On 10 Apr. 2017 a biliary stent was introduced for drainage of rising levels of bilirubin >14 mg/dL. On 13 Apr. 2017 abdominal exploratory laparoscopy reviled peritoneal metastases and conventional chemotherapy was recommended but the patient preferred synergic combination of low doses of gemcitabine, leucovorin, fluorouracil, irinotecan and oxaliplatin administered over 48 h period every two weeks. After discovery of 2 mutations on BRCA1 (Exon 10/V9201) and BRCA2 (Exon 11/N2113S) it was decided to add PARP inhibitor and on 24 Jul. 2017 rucaparib was added and CA19-9 dropped to 287 IU/mL. CA19-9 increased following administration of nivolumab but stabilized at 250 IU/mL by adding abraxane, gemcitabine and oxaliplatin. Following addition of Erbitux and later on combinations of low-dose (1.0 mg/kg) ipilimumab and nivolumab (2 mg/kg) CA19-9 levels dropped from 369 IU/mL to normal levels. […]

Take `Nc1ncc2[nH]cnc2n1` [2-aminopurine]: the “Enhancement of IBDV replication (virus titer, TCID50)” value with AGE1.CR.PIX and with HEK293 was “approximately 10 fold” each time. In addition, the “Effect on IBDV replication (virus titer, TCID50)” value in the assay on A549 is on record as “no benefit”.

As to `CNCc1ccc(-c2[nH]c3cc(F)cc4c3c2CCNC4=O)cc1` [rucaparib], the “Tumor marker CA19-9 level after adding the agent (earlier therapy, patient history)” value in assay [1] was 287 IU/mL.

Take nivolumab: in assay [1], the “Tumor marker CA19-9 level after adding the agent (earlier therapy, patient history)” value was “increased”.

The values above are taken from patent publication US20240299476A1, “USE OF A BIRNAVIRUS ALONE OR IN COMBINATION THERAPY FOR THE TREATMENT OF CANCER” (Probiogen AG, priority 2020, published 2024).
